# According to patent US20260274814A1, “THIENYL COMPOUNDS FOR THE TREATMENT OF A CENTRAL NERVOUS SYSTEM DISEASE OR DISORDER” (Coreterra Therapeutics, Inc., priority 2023, published 2026):
# Structures can show the parent of a compound that is named as a salt. Where two headings read alike, the source gives them in different places.
# Test system: mice
# Assay: Neuropharmacological Assay (SmartCube): automated behavioral signature of compound-treated mice compared with a database of reference drug classes
# Assay type: in vivo
# Conditions: for minimal effective dose: Mus musculus, ip, minimal effective dose: dose having 45% or more total activity in SmartCube, i.p., that dose is shown, read-out: MED
# In short: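 Compounds in N-methyl-2-pyrrolidone/polyethylene glycol/propylene glycol were given i.p. 15 min before testing, at 3 doses; values shown are for 3.0 mg/kg. Video-captured behaviour was matched by algorithm against reference drug classes, giving a probability per class. MED: lowest dose reaching ≥45% total activity.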
# [1] = SmartCube class probability, 3.0 mg/kg i.p., 15 min before test
# [2] = SmartCube probability class, 3.0 mg/kg dose, i.p. 15 min before the behavioral test
SMILES,minimal effective dose (if only one dose tested) [mg/kg],AD [1],AN [1],AP [1],AX [1],CE [1],MS [1],PS [1],minimal effective dose (if only one dose was tested) [mg/kg],AD [2],AG [2],AN [2],AP [2],AX [2],CE [2],HL [2],MS [2],PS [2],SH [2],UK [2],further results
"CNC1COc2c(C)csc2C1 (stereo not shown) [Compound 247, N, 3-dimethyl-6,7-dihydro-5H-thieno[3,2-b]pyran-6-amine hydrochloride]",3,ND (^ <4%),ND (^ <4%),++++ (≥74%),ND (^ <4%),ND (^ <4%),ND (^ <4%),ND (^ <4%),–,–,–,–,–,–,–,–,–,–,–,–,AG [1]: ND (^ <4%); HL [1]: ND (^ <4%); SH [1]: ND (^ <4%); UK [1]: ND (^ <4%)
"CNC1COc2c(C(F)(F)F)csc2C1 (stereo not shown) [Compound 248, N-methyl-3-(trifluoromethyl)-6,7-dihydro-5H-thieno[3,2-b]pyran-6-amine hydrochloride]",1,+++ (≥49%),ND (^ <4%),ND (^ <4%),ND (^ <4%),ND (^ <4%),ND (^ <4%),ND (^ <4%),–,–,–,–,–,–,–,–,–,–,–,–,HL [1]: ND (^ <4%); SH [1]: ND (^ <4%); UK [1]: ND (^ <4%)
"CNC1COc2c(csc2C(F)(F)F)C1 (stereo not shown) [Compound 260, N-methyl-7-(trifluoromethyl)-3,4-dihydro-2H-thieno[3,4-b]pyran-3-amine hydrochloride]",3,+ (≥4%),ND (^ <4%),ND (^ <4%),ND (^ <4%),ND (^ <4%),ND (^ <4%),ND (^ <4%),–,–,–,–,–,–,–,–,–,–,–,–,AG [1]: ND (^ <4%); HL [1]: ND (^ <4%); SH [1]: ND (^ <4%); UK [1]: +++ (≥49%)
"CNC1(C)COc2ccsc2C1 (stereo not shown) [Compound 266, N, 6-dimethyl-5,7-dihydrothieno[3,2-b]pyran-6-amine formate salt]",> 3,ND (^ <4%),ND (^ <4%),ND (^ <4%),ND (^ <4%),ND (^ <4%),ND (^ <4%),ND (^ <4%),–,–,–,–,–,–,–,–,–,–,–,–,AG [1]: ND (^ <4%); SH [1]: ND (^ <4%); UK [1]: + (≥4%)
"CNC1(C)COc2cc(C)sc2C1 (stereo not shown) [Compound 285, N, 2,6-trimethyl-5,7-dihydrothieno[3,2-b]pyran-6-amine hydrochloride]",–,–,–,–,–,–,–,–,3,ND (^ <4%),ND (^ <4%),ND (^ <4%),ND (^ <4%),ND (^ <4%),ND (^ <4%),ND (^ <4%),ND (^ <4%),ND (^ <4%),ND (^ <4%),+++ (≥49%),–
"CNC1COc2scc(C)c2C1 (stereo not shown) [Compound 308, N, 5-dimethyl-3,4-dihydro-2H-thieno[2,3-b]pyran-3-amine hydrochloride]",–,–,–,–,–,–,–,–,< 3,ND (^ <4%),ND (^ <4%),ND (^ <4%),++++ (≥74%),ND (^ <4%),ND (^ <4%),ND (^ <4%),ND (^ <4%),ND (^ <4%),ND (^ <4%),ND (^ <4%),–
"NC1Cc2ccsc2C1 (stereo not shown) [Compound 311, 5,6-dihydro-4H-cyclopenta[b]thiophen-5-amine hydrochloride]",–,–,–,–,–,–,–,–,3,++ (≥24%),ND (^ <4%),ND (^ <4%),ND (^ <4%),ND (^ <4%),ND (^ <4%),ND (^ <4%),ND (^ <4%),ND (^ <4%),ND (^ <4%),+++ (≥49%),–
"CNC1COc2scc(C#N)c2C1 (stereo not shown) [Compound 322, 3-(methylamino)-3,4-dihydro-2H-thieno[2,3-b]pyran-5-carbonitrile hydrochloride]",–,–,–,–,–,–,–,–,3,ND (^ <4%),ND (^ <4%),ND (^ <4%),+++ (≥49%),ND (^ <4%),ND (^ <4%),ND (^ <4%),ND (^ <4%),ND (^ <4%),ND (^ <4%),++ (≥24%),–
"NC1CCCc2ccsc2C1 (stereo not shown) [Compound 323, 5,6,7,8-tetrahydro-4H-cyclohepta[b]thiophen-7-amine hydrochloride]",–,–,–,–,–,–,–,–,3,++ (≥24%),ND (^ <4%),ND (^ <4%),++ (≥24%),+ (≥4%),ND (^ <4%),ND (^ <4%),ND (^ <4%),ND (^ <4%),ND (^ <4%),+ (≥4%),–
"CNC1CCCc2sccc2C1 (stereo not shown) [Compound 326, N-methyl-5,6,7,8-tetrahydro-4H-cyclohepta[b]thiophen-5-amine hydrochloride]",–,–,–,–,–,–,–,–,3,ND (^ <4%),ND (^ <4%),ND (^ <4%),ND (^ <4%),++ (≥24%),ND (^ <4%),ND (^ <4%),ND (^ <4%),ND (^ <4%),ND (^ <4%),++ (≥24%),–
"CNC1CCc2ccsc2CC1 (stereo not shown) [Compound 327, N-methyl-5,6,7,8-tetrahydro-4H-cyclohepta[b]thiophen-6-amine hydrochloride]",–,–,–,–,–,–,–,–,3,ND (^ <4%),ND (^ <4%),ND (^ <4%),ND (^ <4%),++ (≥24%),ND (^ <4%),ND (^ <4%),ND (^ <4%),ND (^ <4%),ND (^ <4%),+++ (≥49%),–
"CNC1(C)Cc2ccsc2C1 (stereo not shown) [Compound 328, N, 5-dimethyl-5,6-dihydro-4H-cyclopenta[b]thiophen-5-amine hydrochloride]",–,–,–,–,–,–,–,–,3,++ (≥24%),ND (^ <4%),ND (^ <4%),ND (^ <4%),+ (≥4%),ND (^ <4%),+ (≥4%),ND (^ <4%),++ (≥24%),ND (^ <4%),+ (≥4%),–
